Assay results published in PubChem BioAssay AID1918998 (Molecular Pharmacology Branch, DTP, NCI, 2023).
pIC50: −log10 of the molar value.

System: 521955-158-R2-J5-PDC complex spheroid growth
Assay: Anticancer human tumor 521955-158-R2-J5-PDC patient-derived pancreatic carcinoma cell line growth inhibition [AhR]
Details: for pIC50: curve of first compound; for viability, T/C: stronger effect = lower value
Excerpt: Multicellular complex tumor spheroid response to aryl hydrocarbon receptor antagonists in combination with a variety of drugs and investigational agents in selected tumor cell lines
The current study was undertaken to assess response to aryl hydrocarbon receptor antagonists in combination with standard-of-care drugs and investigational agents in solid tumor complex spheroid models. Complex spheroids include a stromal component modeled by human endothelial cells (HUVEC) and fibroblasts modeled by human mesenchymal stem cells (MSCs). The concentration ranges selected for each drug and investigational agent were based upon clinically achievable concentrations if the clinical Cmax of the agent was known.
Compounds. The drugs and investigational agents: BAY 2416964 (NSC825713), GNF351 (NSC835774), CH-223191 (NSC835775), CPI-455 (NSC825282), aza-TdCyd (NSC777586), decitabine (NSC127716), belinostat (NSC758774), entinostat (NSC756642), pevonedistat (NSC761192), tazemetostat (NSC777109), talazoparib (NSC765396), olaparib (NSC753686), selinexor (NSC780203), nedisertib (M3814, NSC802822), bortezomib (NSC756655), venetoclax (NSC766270), doxorubicin (NSC123127), elimusertib (BAY189344, NSC800525), ceralasertib (AZD6738, NSC777638), TAK-243 (NSC785004), alisertib (NSC759677), etoposide (NSC141540), topotecan (NSC609699), eribulin (NSC707389), gemcitabine (NSC613327), carboplatin (NSC241240), cisplatin (NSC119875), and SN-38 (NSC673596) were obtained from the National Cancer Institute (NCI) Developmental Therapeutics Program Chemical Repository (32). The FDA-approved anticancer drug set is available from the Developmental Therapeutics Program at https://dtp.cancer.gov/organization/dscb/obtaining/available plates.htm. […] The stock solutions were prepared in dimethyl sulfoxide (DMSO, Sigma-Aldrich, St. Louis, MO, cat. D2650), except for the platinum compounds which were prepared in saline (Quality Biological, Gaithersburg, MD, cat. 114-055-101), at 800-fold the tested concentration and stored at -70 degrees C prior to their use. All drugs and investigational agents were tested over a range starting from a high concentration at or near the clinical Cmax and decreasing in half-log increments. If the clinical Cmax for an agent had not been determined, the highest concentration tested was 10 microM (Table 1).
Cell Culture. All cells were maintained in an incubator at 37 degrees C and 5% CO2 with 95% humidity. The PDC lines were cultured according to standard operating procedures established by the NCI PDMR (https://pdmr.cancer.gov). Briefly, all PDCs were thawed and cultured in Matrigel-coated flasks prepared with a working solution of 1X Ham's F-12 nutrient mix, without supplementation (Invitrogen, Waltham, MA, cat. 11765054), 100 U/mL penicillin-streptomycin (Invitrogen, cat. 15140122), and 2.5% Matrigel (Corning Inc., Corning, NY, cat. 354248) for the first three passages. All PDCs were cultured in complete DMEM/F-12 media containing advanced DMEM/F-12 (Invitrogen, cat. 12634028), 4.9% defined fetal bovine serum, heat inactivated (HyClone Laboratories Inc., Logan, UT, cat. SH30070.03HI), 389 ng/mL hydrocortisone (Sigma-Aldrich, cat. H4001), 9.7 ng/mL human EGF recombinant protein (Invitrogen, cat. PHG0313), 23.4 microg/mL adenine (Sigma-Aldrich, cat. A2786), 97.3 U/mL penicillin-streptomycin (Invitrogen, cat. 15140122), 1.9 mM L-glutamine (Invitrogen, cat. 25030081), and 9.7 microM Y-27632 dihydrochloride (Tocris Bioscience, Bristol, United Kingdom, cat. 1254). The PDCs were cultured in complete DMEM/F12 media without 10 microM Y-27632 dihydrochloride for at least two passages prior to the screen. The established cell lines NCI-H1341 and […] were cultured in DMEM/F-12, HEPES (Invitrogen, cat. 11330032), 5% defined fetal bovine serum (HyClone Laboratories Inc., cat. SH30070.03), ITS premix universal culture supplement [insulin (5 microg/mL), transferrin (5 microg/mL), and selenious acid (5 ng/mL)] […]
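Wherever viability, T/C is given: spheroids mix tumor cells with HUVEC endothelium and human MSC stroma; luminescence taken as viability surrogate after a week of drug exposure.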

Question: `Nc1ncn(C2CC(O)C(CO)S2)c(=O)n1` (stereo not given) + CC(CO)NC(=O)c1cc(-c2ccc(Cl)cc2)nn(-c2cnn(C)c2)c1=O was tested. Which pIC50 (second compound 0.1 µM) did it give?
Answer: < 6.52

Question: What about the pIC50 (second compound 0.316 µM) of the same compound?
Answer: < 6.52

Question: What about the pIC50 (second compound 1 µM) of the same compound?
Answer: < 6.52

Question: And the pIC50 (second compound 3.16 µM)?
Answer: < 6.52

Question: What about the pIC50 (second compound 10 µM) of the same compound?
Answer: < 6.52

Question: What about the viability, T/C (second compound 0.1 µM, first compound 0.000949 µM) of the same compound?
Answer: 79.4%

Question: What about the viability, T/C (second compound 0.1 µM, first compound 0.003 µM) of the same compound?
Answer: 89.4%

Question: And the viability, T/C (second compound 0.1 µM, first compound 0.00949 µM)?
Answer: 97.9%

Question: What about the viability, T/C (second compound 0.1 µM, first compound 0.03 µM) of the same compound?
Answer: 89.9%

Question: What about the viability, T/C (second compound 0.1 µM, first compound 0.0949 µM) of the same compound?
Answer: 72.6%

Question: And the viability, T/C (second compound 0.1 µM, first compound 0.3 µM)?
Answer: 71.2%

Question: What about the viability, T/C (second compound 0.316 µM, first compound 0.000949 µM) of the same compound?
Answer: 115%

Question: What about the viability, T/C (second compound 0.316 µM, first compound 0.003 µM) of the same compound?
Answer: 107%

Question: And the viability, T/C (second compound 0.316 µM, first compound 0.00949 µM)?
Answer: 107%

Question: And the viability, T/C (second compound 0.316 µM, first compound 0.03 µM)?
Answer: 116%

Question: What about the viability, T/C (second compound 0.316 µM, first compound 0.0949 µM) of the same compound?
Answer: 94.1%

Question: What about the viability, T/C (second compound 0.316 µM, first compound 0.3 µM) of the same compound?
Answer: 84.4%

Question: What about the viability, T/C (second compound 1 µM, first compound 0.000949 µM) of the same compound?
Answer: 107%

Question: What about the viability, T/C (second compound 1 µM, first compound 0.003 µM) of the same compound?
Answer: 107%

Question: And the viability, T/C (second compound 1 µM, first compound 0.00949 µM)?
Answer: 106%

Question: And the viability, T/C (second compound 1 µM, first compound 0.03 µM)?
Answer: 108%

Question: What about the viability, T/C (second compound 1 µM, first compound 0.0949 µM) of the same compound?
Answer: 73%

Question: What about the viability, T/C (second compound 1 µM, first compound 0.3 µM) of the same compound?
Answer: 99.3%

Question: And the viability, T/C (second compound 3.16 µM, first compound 0.000949 µM)?
Answer: 102%

Question: And the viability, T/C (second compound 3.16 µM, first compound 0.003 µM)?
Answer: 116%

Question: And the viability, T/C (second compound 3.16 µM, first compound 0.00949 µM)?
Answer: 141%

Question: What about the viability, T/C (second compound 3.16 µM, first compound 0.03 µM) of the same compound?
Answer: 111%

Question: And the viability, T/C (second compound 3.16 µM, first compound 0.0949 µM)?
Answer: 86.1%

Question: What about the viability, T/C (second compound 3.16 µM, first compound 0.3 µM) of the same compound?
Answer: 73.1%

Question: And the viability, T/C (second compound 10 µM, first compound 0.000949 µM)?
Answer: 73.8%

Question: What about the viability, T/C (second compound 10 µM, first compound 0.003 µM) of the same compound?
Answer: 81.3%

Question: What about the viability, T/C (second compound 10 µM, first compound 0.00949 µM) of the same compound?
Answer: 102%

Question: And the viability, T/C (second compound 10 µM, first compound 0.03 µM)?
Answer: 76.9%

Question: What about the viability, T/C (second compound 10 µM, first compound 0.0949 µM) of the same compound?
Answer: 88.3%

Question: What about the viability, T/C (second compound 10 µM, first compound 0.3 µM) of the same compound?
Answer: 81.5%
